Data published in BindingDB's records for doi:10.1124/jpet.105.099705 (Meiji Seika Kaisha, 2006).
Structures can show the parent of a compound that is named as a salt.

Legend:
[1] = target: T1, Neuropeptide Y receptor type 1 (Homo sapiens, UniProt P25929)
T1 sequence (P25929 whole entry): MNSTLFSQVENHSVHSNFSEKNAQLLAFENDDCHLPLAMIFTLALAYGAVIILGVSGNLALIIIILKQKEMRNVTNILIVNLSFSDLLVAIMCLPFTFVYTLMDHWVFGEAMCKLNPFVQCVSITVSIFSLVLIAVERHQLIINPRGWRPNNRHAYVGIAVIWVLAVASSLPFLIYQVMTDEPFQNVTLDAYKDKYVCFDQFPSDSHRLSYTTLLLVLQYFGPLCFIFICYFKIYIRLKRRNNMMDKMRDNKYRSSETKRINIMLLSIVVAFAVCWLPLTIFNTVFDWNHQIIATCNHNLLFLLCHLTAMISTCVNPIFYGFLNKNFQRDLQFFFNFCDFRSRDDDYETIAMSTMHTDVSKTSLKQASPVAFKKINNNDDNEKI

[2] = target: T2, Neuropeptide Y receptor type 5 (Homo sapiens, UniProt Q15761)
T2 sequence (Q15761 whole entry): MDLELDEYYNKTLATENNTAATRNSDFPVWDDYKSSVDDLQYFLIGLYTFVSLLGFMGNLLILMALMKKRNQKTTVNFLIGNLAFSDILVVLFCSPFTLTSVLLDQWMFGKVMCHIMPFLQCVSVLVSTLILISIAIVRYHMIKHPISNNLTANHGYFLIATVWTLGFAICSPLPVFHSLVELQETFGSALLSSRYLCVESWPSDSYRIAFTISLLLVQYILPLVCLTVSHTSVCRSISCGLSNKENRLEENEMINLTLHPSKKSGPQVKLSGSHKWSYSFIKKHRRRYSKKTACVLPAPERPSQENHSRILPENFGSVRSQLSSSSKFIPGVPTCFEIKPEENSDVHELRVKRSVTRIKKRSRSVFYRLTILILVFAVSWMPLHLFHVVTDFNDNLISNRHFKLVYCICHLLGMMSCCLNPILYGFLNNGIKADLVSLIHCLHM

[3] = target: T3, Neuropeptide Y receptor type 2 (Homo sapiens, UniProt P49146)
T3 sequence (P49146 whole entry): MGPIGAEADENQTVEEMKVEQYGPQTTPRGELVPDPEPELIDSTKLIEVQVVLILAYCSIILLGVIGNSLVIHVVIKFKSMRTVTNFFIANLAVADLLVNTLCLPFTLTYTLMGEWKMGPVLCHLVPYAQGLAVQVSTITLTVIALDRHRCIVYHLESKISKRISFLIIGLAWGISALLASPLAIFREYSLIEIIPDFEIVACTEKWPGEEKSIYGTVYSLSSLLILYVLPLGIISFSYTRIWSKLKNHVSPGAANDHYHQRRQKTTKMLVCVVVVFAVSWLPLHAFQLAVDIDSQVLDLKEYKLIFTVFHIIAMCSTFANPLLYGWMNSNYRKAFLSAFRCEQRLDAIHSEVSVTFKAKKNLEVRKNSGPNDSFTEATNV

Row | Structure (SMILES) | IC50 [1] [nM] | IC50 [2] [nM] | IC50 [3] [nM]
1 | CC1(C)CC(=O)C(C2C3=C(CC(C)(C)CC3=O)Oc3ccccc32)C(=O)C1 (stereo not given) [CAS_6508-43-6] | > 10000 | 25 | > 10000
2 | CC(C)n1c2c(c3cc(NC(=O)N(C)CCc4ccncc4)ccc31)CCCC2 [3-(5,6,7,8-tetrahydro-9-isopropyl-carbazol-3-yl)-1-methyl-1-(2-pyridin-4-yl-ethyl)-ureanbsphydrochloride] | – | 4.3 | > 10000
